Test [1] is described as follows: DNA binding of candidate compounds, dose response, artefact control for RAD54 inhibitor project, biochemical, fluorescence polarization, cherry-pick (AID 651673). Type of test: functional.
Test [2] deals with HEK293. Nature of the test: inhibitors of LMP1-driven NF-kB reporter, dose response, cell-based, HEK293, luciferase, cherry-pick (AID 588343). The conditions noted are these: Homo sapiens. Type of test: functional.
The test system of the next test is HeLa. The experiment in a line: HeLa cell cytotoxicity, dose response, cytotoxicity control for MITF activator project, CellTiter-Glo luminescence, cherry-pick samples (AID 540259). Type of test: functional, cell-based. The conditions noted are these: Homo sapiens.
The target in another test is Melanocortin receptor 4 (Homo sapiens, UniProt P32245). The experiment in a line: MC4R antagonist potency on cAMP, dose response, cell-based, TR-FRET, biased antagonists (AID 602298).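 Also: antagonist potency against agonist-stimulated cAMP production.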 Type of test: functional.
Test [3] in a line: nonselective inhibitors of cellular cAMP signaling, dose response, counter-screen for MC4R biased antagonist project, cell-based, TR-FRET cAMP detection (AID 602305).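 Also: U2OS cells stimulated with forskolin near its EC80 as the cAMP inducer; potency is for inhibition of forskolin-stimulated cAMP signaling.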 Type of test: functional.
The next test addresses Nonstructural protein 1 (Influenza A virus, UniProt Q194T2). Type of test: functional, Influenza A virus (A/California/07/2009(H1N1)).
Test [4] addresses Melanin-concentrating hormone receptor 1 (Homo sapiens, UniProt Q99705). Nature of the test: Late-stage fluorescence-based counterscreen for antagonists of the G-protein coupled receptor 7 (GPR7): cell-based dose response assay to identify antagonists of the melanin-concentrating hormone receptor 1 (MCHR1) Set 6. Type of test: functional.
Test [5] concerns the target T1, Neuropeptides B/W receptor type 1 (Homo sapiens, UniProt P48145).
T1 sequence (P48145 whole entry): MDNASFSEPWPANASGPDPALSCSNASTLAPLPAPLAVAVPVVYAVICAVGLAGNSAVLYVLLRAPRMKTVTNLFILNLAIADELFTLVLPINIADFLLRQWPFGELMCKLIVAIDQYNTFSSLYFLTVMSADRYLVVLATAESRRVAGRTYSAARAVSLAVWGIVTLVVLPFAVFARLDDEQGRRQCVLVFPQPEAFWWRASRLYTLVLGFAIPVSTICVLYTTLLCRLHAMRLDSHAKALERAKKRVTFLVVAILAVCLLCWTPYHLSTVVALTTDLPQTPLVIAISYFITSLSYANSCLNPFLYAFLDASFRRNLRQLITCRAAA
The experiment in a line: GPR7 antagonist potency, late-stage follow-up, cell-based, fluorescence, dose response, set 6 (AID 588583). Type of test: functional.

In a further test the test system is P388/ADR. The experiment in a line: cells. Type of test: functional. Particulars: Mus musculus.
A further test deals with SN12K1. The experiment in a line: cells. Particulars: Homo sapiens. Type of test: functional.
The next test concerns P388. The experiment in a line: cells. Type of test: functional. Particulars: Mus musculus.
The target in test [6] is T2, Sentrin-specific protease 1 (Homo sapiens, UniProt Q9P0U3).
T2 sequence (Q9P0U3 whole entry): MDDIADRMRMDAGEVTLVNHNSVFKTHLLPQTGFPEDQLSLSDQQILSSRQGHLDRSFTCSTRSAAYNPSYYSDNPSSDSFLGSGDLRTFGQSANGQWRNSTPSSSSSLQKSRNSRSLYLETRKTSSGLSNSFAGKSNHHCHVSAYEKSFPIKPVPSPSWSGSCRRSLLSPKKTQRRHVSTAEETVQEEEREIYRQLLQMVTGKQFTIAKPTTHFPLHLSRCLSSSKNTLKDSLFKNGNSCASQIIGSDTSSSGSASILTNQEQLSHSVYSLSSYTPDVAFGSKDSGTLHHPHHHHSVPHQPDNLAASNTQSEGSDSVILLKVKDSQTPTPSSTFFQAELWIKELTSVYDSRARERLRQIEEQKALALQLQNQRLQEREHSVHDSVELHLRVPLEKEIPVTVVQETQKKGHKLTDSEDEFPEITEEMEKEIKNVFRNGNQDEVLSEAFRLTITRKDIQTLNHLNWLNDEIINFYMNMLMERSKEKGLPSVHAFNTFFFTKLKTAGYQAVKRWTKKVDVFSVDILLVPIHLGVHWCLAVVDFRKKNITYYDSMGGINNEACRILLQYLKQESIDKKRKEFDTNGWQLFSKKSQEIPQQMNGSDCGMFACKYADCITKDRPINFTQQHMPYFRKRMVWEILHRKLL
Nature of the test: potency of human SENP1 inhibitors, dose response, biochemical, kinetic FRET (AID 651697). Particulars: read-out: IC50_Mean. Type of test: functional.

The target of test [7] is T2, Sentrin-specific protease 1. The experiment in a line: Dose response confirmation of small molecule inhibitors of the catalytic domain of the SUMO protease, SENP1 in a FRET assay. Type of test: functional. Particulars: read-out: IC50_Mean.
Test [8] in a line: Vero E6 cell cytotoxicity, dose response, cytotoxicity control for non-replicating M. tuberculosis project, secondary assay (AID 492998). Type of test: functional, VeroE6. The conditions noted are these: Vero C1008.
The next test is described as follows: cells. Type of test: functional.
For test [9], the target named is Luciferin 4-monooxygenase (Photinus pyralis, UniProt P08659). Nature of the test: firefly luciferase enzyme inhibitors, dose response, biochemical, luminescence (AID 1891).
Test [10] in a line: Luminescence Cell-Based Dose Confirmation HTS to Identify Inhibitors of Platelet Dense Granule Release. [Related pubchem assays: 1663 (Primary HTS), 1678 (Summary of Project)]. Type of test: functional.
Test [11] addresses T3, Heat shock factor protein 1 (Mus musculus, UniProt P38532).
T3 sequence (P38532 whole entry): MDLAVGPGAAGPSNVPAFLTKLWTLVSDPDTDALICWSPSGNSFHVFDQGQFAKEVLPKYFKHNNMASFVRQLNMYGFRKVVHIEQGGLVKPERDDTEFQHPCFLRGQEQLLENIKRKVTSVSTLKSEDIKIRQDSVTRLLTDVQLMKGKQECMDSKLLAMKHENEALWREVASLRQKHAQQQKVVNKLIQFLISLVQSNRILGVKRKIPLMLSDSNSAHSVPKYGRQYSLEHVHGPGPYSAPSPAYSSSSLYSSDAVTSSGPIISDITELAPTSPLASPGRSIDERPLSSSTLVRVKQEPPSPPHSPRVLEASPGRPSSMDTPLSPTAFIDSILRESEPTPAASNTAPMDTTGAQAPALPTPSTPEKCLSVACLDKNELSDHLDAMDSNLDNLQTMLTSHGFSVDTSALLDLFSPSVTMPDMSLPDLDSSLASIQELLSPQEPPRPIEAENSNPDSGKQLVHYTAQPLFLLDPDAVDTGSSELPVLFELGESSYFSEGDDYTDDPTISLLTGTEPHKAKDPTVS
The experiment in a line: inhibition of MG132-induced HSE-luciferase signal, confirmation, cell-based, NIH3T3, luminescence, dose retest (AID 2382).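 Also: NIH3T3 fibroblasts with HSF1-driven luciferase reporter stressed by proteasome inhibitor MG132; luminescence from HSF1-driven luciferase expression after 8 hours of MG132 stress.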 Type of test: functional.

For test [12], the target named is T4, Small ubiquitin-related modifier 1 (Homo sapiens, UniProt P63165). The experiment in a line: inhibitors of SUMO1 peptide binding, dose response, biochemical, fluorescence polarization, uHTS hits (AID 624382). Particulars: read-out: IC50_Mean. Type of test: functional.
For test [13], the target named is T4, Small ubiquitin-related modifier 1. Nature of the test: inhibitors of SUMO1 partner interactions, dose response, biochemical, FRET (AID 624383). The conditions noted are these: read-out: IC50_Mean. Type of test: functional.
Test [14] deals with Streptococcus sp. 'group A'. The experiment in a line: growth inhibition of control SK(-) GAS strain, dose response, counter-screen for streptokinase expression inhibitor project, luminescence, kanamycin, BacTiterGlo, confirmation (AID 1900). Type of test: functional, organism-based.
A further test concerns the target T5, Streptokinase A (Streptococcus pyogenes serotype M1, UniProt P10520).
T5 sequence (P10520 whole entry): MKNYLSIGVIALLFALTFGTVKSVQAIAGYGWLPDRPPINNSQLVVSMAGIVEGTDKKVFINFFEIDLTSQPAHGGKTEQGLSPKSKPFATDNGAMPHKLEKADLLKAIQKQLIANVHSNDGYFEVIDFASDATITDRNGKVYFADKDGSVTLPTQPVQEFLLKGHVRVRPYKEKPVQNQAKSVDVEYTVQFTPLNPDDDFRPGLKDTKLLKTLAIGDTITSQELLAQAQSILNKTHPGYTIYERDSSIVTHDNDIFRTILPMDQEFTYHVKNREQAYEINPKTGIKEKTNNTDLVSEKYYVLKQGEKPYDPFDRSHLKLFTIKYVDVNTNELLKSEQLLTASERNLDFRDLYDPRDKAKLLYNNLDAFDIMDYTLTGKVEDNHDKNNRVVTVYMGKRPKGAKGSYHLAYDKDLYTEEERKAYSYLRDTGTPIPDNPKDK
Nature of the test: S. pyogenes streptokinase expression inhibitors, potency, dose response, plasminogen activation absorbance, OD405 (AID 1914).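 Also: secreted streptokinase activity via plasminogen activation per viability signal from cell pellet.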 Type of test: functional, Streptococcus pyogenes M1 GAS.

Another test relates to Streptococcus. The experiment in a line: Group A Streptococcus viability loss, dose response, counter-screen for streptokinase expression inhibitor project, luminescence, BacTiterGlo (AID 1915).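 Also: potency for reduction of bacterial viability or growth.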 Type of test: functional, organism-based.
Another test has as its target Tumor necrosis factor (Homo sapiens, UniProt P01375). Nature of the test: TNFa-triggered NF-kB activation inhibitors, SAR follow-up, cell-based, revised (AID 2337). Type of test: functional.
In test [15] the test system is HEK293. Nature of the test: cells. The conditions noted are these: Homo sapiens.

Each structure is given as a SMILES string. Calls of active or inactive are those of the source. Where only a bound is given, the exact number is not on record here.

Chain of Melanocortin receptor 4 (P32245 whole entry): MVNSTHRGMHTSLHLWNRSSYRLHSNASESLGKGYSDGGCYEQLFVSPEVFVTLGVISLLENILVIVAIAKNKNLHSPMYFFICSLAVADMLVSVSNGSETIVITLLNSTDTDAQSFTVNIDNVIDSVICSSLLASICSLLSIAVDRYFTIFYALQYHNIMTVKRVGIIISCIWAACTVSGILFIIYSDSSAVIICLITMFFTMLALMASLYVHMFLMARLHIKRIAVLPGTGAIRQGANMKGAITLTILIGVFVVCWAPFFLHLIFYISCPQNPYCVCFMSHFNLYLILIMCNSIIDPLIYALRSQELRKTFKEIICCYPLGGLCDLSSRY
Chain of Melanin-concentrating hormone receptor 1 (Q99705 whole entry): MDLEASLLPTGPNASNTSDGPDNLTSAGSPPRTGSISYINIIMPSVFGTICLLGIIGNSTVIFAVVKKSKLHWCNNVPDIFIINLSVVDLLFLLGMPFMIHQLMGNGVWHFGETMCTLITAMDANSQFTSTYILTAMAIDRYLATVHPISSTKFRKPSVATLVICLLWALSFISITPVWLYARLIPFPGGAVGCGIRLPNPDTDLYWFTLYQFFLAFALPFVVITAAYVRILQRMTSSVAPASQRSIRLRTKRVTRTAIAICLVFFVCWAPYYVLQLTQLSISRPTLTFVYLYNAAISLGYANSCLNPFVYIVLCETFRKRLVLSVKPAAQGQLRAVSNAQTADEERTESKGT
T4 sequence (P63165 whole entry): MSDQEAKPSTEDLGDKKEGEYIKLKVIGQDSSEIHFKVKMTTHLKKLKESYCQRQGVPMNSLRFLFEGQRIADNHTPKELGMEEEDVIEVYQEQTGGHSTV
Chain of Luciferin 4-monooxygenase (P08659 whole entry): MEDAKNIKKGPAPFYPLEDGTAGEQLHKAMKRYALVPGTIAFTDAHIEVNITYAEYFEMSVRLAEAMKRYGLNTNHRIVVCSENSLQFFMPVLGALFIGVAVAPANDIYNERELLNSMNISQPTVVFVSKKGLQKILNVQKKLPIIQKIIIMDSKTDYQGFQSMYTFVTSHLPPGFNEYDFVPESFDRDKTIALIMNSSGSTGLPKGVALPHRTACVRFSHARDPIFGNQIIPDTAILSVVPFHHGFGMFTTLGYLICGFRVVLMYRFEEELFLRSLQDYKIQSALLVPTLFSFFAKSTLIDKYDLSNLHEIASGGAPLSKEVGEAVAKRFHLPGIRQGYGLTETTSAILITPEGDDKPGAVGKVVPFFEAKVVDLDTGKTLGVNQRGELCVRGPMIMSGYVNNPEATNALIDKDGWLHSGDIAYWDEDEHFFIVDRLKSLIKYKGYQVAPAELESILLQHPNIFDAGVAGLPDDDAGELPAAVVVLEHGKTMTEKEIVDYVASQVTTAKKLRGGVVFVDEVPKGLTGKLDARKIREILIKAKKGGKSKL
Chain of Nonstructural protein 1 (Q194T2 whole entry): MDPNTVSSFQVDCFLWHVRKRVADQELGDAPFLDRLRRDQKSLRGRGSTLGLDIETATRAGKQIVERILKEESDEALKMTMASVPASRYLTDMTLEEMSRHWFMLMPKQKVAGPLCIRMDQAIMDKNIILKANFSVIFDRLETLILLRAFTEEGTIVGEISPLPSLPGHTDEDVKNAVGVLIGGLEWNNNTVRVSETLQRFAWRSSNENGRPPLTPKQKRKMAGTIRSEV
Chain of Tumor necrosis factor (P01375 whole entry): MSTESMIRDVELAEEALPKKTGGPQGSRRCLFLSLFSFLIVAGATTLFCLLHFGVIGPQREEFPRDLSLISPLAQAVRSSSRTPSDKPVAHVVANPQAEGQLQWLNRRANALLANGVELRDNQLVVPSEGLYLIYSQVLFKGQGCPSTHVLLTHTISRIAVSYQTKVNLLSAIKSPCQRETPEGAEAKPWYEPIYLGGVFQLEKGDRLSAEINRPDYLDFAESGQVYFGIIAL

Take `Cc1nc2oc3c(O)ncnc3c2c2c1COC(C)(C)C2`: in [1], the AC50 was 67.1 µM (active).
As to `CCc1ccc(/C=C2\SC(=S)N(CCCC(=O)NC3=NCCS3)C2=O)cc1`, in the test on HEK293 [2], the AC50 is 1.85 µM (active).
For `Cc1ccc(C(=O)Nc2ncccc2S(=O)(=O)c2ccccc2)cc1`, in the test on HeLa, the AC50 is > 350 µM (inactive).
With `O=C(CNC(=O)c1ccc(Oc2ccccc2)cc1)OC1CCCCC1=O` (stereo not given), the IC50 (on Melanocortin receptor 4; in [3]) was > 64.6 µM (inactive) in each case.
Take `Cc1cccn2c(=O)c(C=C(C#N)C#N)c(N3CCN(c4ccccc4)CC3)nc12`: at Nonstructural protein 1, the IC50 is > 100 µM (active).
Consider `COc1ccc(C(C#N)c2c(Cl)cnn(Cc3cccc4ccccc34)c2=O)c(F)c1` (stereo not given), for which the IC50 in [4] and in test [5] was 0.198 µM (active) in each case.
`C=C1C(O)C2(O)OCC34C(CC5C(C)=CC(=O)C(O)C5(C)C23)OC(=O)C(OC(=O)C/C=C/CCCCCCCC)C14` (stereo not given): the 50% growth inhibitory concentration (GI50) with P388/ADR was 0.0611 µM (active); in the test with SN12K1, 0.02 µM (active); with P388, 0.02 µM (active).
Take `O=C(NCCc1cccs1)c1ccc(Cl)c(Cl)c1`: the concentration at half-maximal activity (AC50) with HeLa is 44.2 µM (active).
Consider `O=c1c(-c2ccc(F)c(F)c2)c(Br)cnn1Cc1cccc2ccccc12`, for which the IC50 in [4] and in test [5] was 0.686 µM (active) throughout.
For the molecule `Cc1ccc(-n2cccc2/C=C2\C(=N)N3N=C(C(C)C)SC3=NC2=O)cc1`, the IC50 (at Melanocortin receptor 4; in test [3]) was > 64.6 µM (inactive) each time.
For `Cc1c(C#N)c(O)nc(O)c1N=Nc1ccc(Br)cc1C(=O)O`, the IC50 in test [6] is 18.1 µM (active); in test [7], 10.6 µM (active).
Turning to `COc1ccc(OC)c(NC(=O)CCN2C(=O)c3cccc([N+](=O)[O-])c3C2=O)c1`, the IC50 (on Melanocortin receptor 4; in test [3]) was > 64.6 µM (inactive) each time.
Take `O=C(NC(Cc1ccc(I)cc1)C(=O)O)c1cccc(Br)c1` (stereo not given): the GI50 with P388/ADR is 55.2 µM (inactive); in the test with SN12K1 it was > 100 µM (inactive); in the test on P388 it was 47.6 µM (inactive).
Take `O=C(Nc1nnc(-c2ccco2)o1)c1cccc2ccccc12`: in [8], the 50% cytotoxic concentration (CC50) is > 20 µM (active). The IC50 in “cells” was 4.54 µM (active).
For `CSc1nc(NC2OCC(O)C(O)C2O)c(N)c(=O)n1C` (stereo not given), the GI50 in the test on P388/ADR, in the test with SN12K1 and in the test with P388 was > 100 µM (inactive) each time.
Take `Cc1ccc(N(C)/N=C/c2ccc(Cl)cc2Cl)nn1`: the EC50 in [9] and in [10] was > 112 µM (not active) throughout. In addition, the AC50 in the test with HeLa was 75.3 µM (active).
Turning to `COc1cccc(C(=O)Nc2sc(C(C)C)cc2C(N)=O)c1OC`, in test [11], the EC50 was > 195 µM (not active). The IC50 (at Melanocortin receptor 4; in [3]) was > 64.6 µM (inactive) in each case.
With `CC(C)(C)c1ccc2c(c1)OP1(Oc3cccc4cccnc34)(O2)Oc2ccc(C(C)(C)C)cc2O1`, the concentration for 50% growth inhibition (GI50) was 1.02 µM (active) with P388/ADR, 4.24 µM (inactive) in the test on SN12K1 and 0.689 µM (active) in the test with P388.
As to `CCCCCCC(=O)Nc1nc(C)c(-c2csc(Nc3cc(Cl)ccc3C)n2)s1`, the IC50 in [12] is > 66.6 µM (inactive); in test [13], 10.1 µM (active).
Turning to `COC(=O)c1c(NC(=O)c2ccccc2)sc(C(=O)c2ccccc2)c1C`, the concentration for a half-maximal effect (EC50) is 6.12 µM (active) in test [14], > 150 µM (not active) on Streptokinase A and 18.4 µM (active) in the test with Streptococcus. For the same molecule, the values for the IC50 in test [6] and in test [7] were 15.6 µM (active) and 21.3 µM (inactive), respectively.
As for `CC(C)(C#N)c1c(Cl)cnn(Cc2cccc3ccccc23)c1=O`, the IC50 in [4] and in test [5] was 2.5 µM (active) each time.
In the case of `N#Cc1ccc(N2CCN(S(=O)(=O)c3ccc4c(c3)CCN4C(=O)C3CC3)CC2)cc1`, the figures for the IC50 at Tumor necrosis factor and with HEK293 [15] were 13.3 µM (active) and > 20 µM (inactive), respectively.
Take `COc1ccc(Oc2c(Cl)cnn(Cc3ccccc3[N+](=O)[O-])c2=O)cc1`: the IC50 in test [4] and in test [5] was 1.41 µM (active) in each case.

For the origin of these results see ChEMBL document CHEMBL1201862, “PubChem BioAssay data set” (2004).
